From article PMC10165934 (Emerging Microbes & Infections, 2023)
Read-outs that look alike come from different tables or passages of the source.

Assays:
SARS-CoV-2 NSP14 MTase [1] = biological target: T1, SARS-CoV-2 NSP14 MTase (Severe acute respiratory syndrome coronavirus 2, UniProt P0DTD1); settings: read-out: anti-MTase IC50; ref 39 (Kasprzyk et al.); cited from earlier work
SARS-CoV-2 [2] = settings: read-out: antiviral EC50; ref 39 (Kasprzyk et al.); cited from earlier work
SARS-CoV-2 [3] = settings: read-out: antiviral EC50; ref 37 (Basu et al.); cited from earlier work
[4] = biological target: SARS-CoV-2 NSP16 2’-O MTase (Severe acute respiratory syndrome coronavirus 2, UniProt P0DTD1); assay: FP-based FL-NAH displacement assay, NSP16; type: binding; settings: NSP16 0.5 µM, 96-well plate
NS5 MTase of ZIKV = biological target: T2, NS5 MTase of ZIKV (Zika virus, UniProt Q32ZE1); assay: FP-based FL-NAH displacement assay, ZIKV NS5; type: binding; settings: ZIKV NS5 2.5 µM, 96-well plate
T2 sequence (Q32ZE1 2517-2790): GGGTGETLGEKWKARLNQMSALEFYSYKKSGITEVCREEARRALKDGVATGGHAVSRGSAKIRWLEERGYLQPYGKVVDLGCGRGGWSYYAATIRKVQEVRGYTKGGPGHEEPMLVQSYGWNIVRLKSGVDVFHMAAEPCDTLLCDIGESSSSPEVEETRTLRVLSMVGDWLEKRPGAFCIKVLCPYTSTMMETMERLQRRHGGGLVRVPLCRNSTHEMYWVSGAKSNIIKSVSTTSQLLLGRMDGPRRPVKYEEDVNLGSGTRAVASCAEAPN

SARS-CoV-2 NSP14 MTase [5] = biological target: T1, SARS-CoV-2 NSP14 MTase; assay: FP-based FL-NAH displacement assay; type: binding
SARS-CoV-2 NSP14 MTase [6] = biological target: T1, SARS-CoV-2 NSP14 MTase; settings: read-out: anti-MTase IC50; ref 37 (Basu et al.); cited from earlier work
SARS-CoV-2 WA strain = assay: Checkerboard combination assay; type: cell-based; settings: Vero E6 cells

For `Cc1cc(-c2ccc(/N=N/c3ccc4c(S(=O)(=O)O)cc(S(=O)(=O)O)c(N)c4c3O)c(C)c2)ccc1/N=N/c1ccc2c(S(=O)(=O)O)cc(S(=O)(=O)O)c(N)c2c1O` [Evans Blue], the IC50 (SARS-CoV-2 NSP14 MTase [1]) is given as 4.9 µM and the EC50 (SARS-CoV-2 [2]) is given as 31 µM.
In the case of `N#Cc1ccc(N2N=C3c4ccc(C(=O)O)cc4CC[C@@H]3[C@@H]2C2CCCC2)cc1Cl` [PF-03882845], the EC50 (SARS-CoV-2 [3]) is listed as 11 µM.
For `NCCOc1cc(C(=O)Nc2cc(OCCN)c3ccccc3n2)nc(C(=O)Nc2cc(OCCN)c3ccccc3n2)c1` [Pyridostatin], the IC50 (SARS-CoV-2 NSP14 MTase [1]) is given as 4.1 µM and the EC50 (SARS-CoV-2 [2]) is given as 3.6 µM.
For `Nc1c(S(=O)(=O)O)cc(Nc2ccc(Nc3nc(Cl)nc(Nc4cccc(S(=O)(=O)O)c4)n3)c(S(=O)(=O)O)c2)c2c1C(=O)c1ccccc1C2=O` [Reactive blue 2], the EC50 (SARS-CoV-2 [2]) is given as 16.3 µM.
In the case of `Nc1ncnc2c1ncn2[C@@H]1O[C@H](CSCC[C@H](N)C(=O)O)[C@@H](O)[C@H]1O` [SAH, S-adenosyl-L-homocysteine], the “quenching of FP from FL-NAH binding to NSP16” value [4] is reported as “quenched” and the “quenching of FP from FL-NAH binding to the ZIKV NS5 MTase” value (NS5 MTase of ZIKV) is reported as “quenched”.
In the case of `C[S+](CC[C@H](N)C(=O)[O-])C[C@H]1O[C@@H](n2cnc3c(N)ncnc32)[C@H](O)[C@@H]1O` (some centres unmarked) [SAM, S-adenosylmethionine], the “quenching of FP from FL-NAH binding to NSP16” value [4] is reported as “quenched”, the IC50 (SARS-CoV-2 NSP14 MTase [5]) is reported as 25 µM and the “quenching of FP from FL-NAH binding to the ZIKV NS5 MTase” value (NS5 MTase of ZIKV) is reported as “quenched”.
For `O=C(CCCN1CCC(O)(c2cccc(C(F)(F)F)c2)CC1)c1ccc(F)cc1` [Trifluperidol], the IC50 (SARS-CoV-2 NSP14 MTase [6]) is given as 23 µM and the EC50 (SARS-CoV-2 [3]) is given as 59.8 µM.
For `CC(C)(C)[C@H](NC(=O)C(F)(F)F)C(=O)N1C[C@H]2[C@@H]([C@H]1C(=O)N[C@H](C#N)C[C@@H]1CCNC1=O)C2(C)C` [nirmatrelvir], the “EC50 shift in the presence of NSC111552 (1.67 µM)” value (SARS-CoV-2 WA strain) was about 1.8 fold.
For `CCC(CC)COC(=O)[C@H](C)N[P@](=O)(OC[C@H]1O[C@@](C#N)(c2ccc3c(N)ncnn23)[C@H](O)[C@@H]1O)Oc1ccccc1` [remdesivir], the “EC50 decrease in the presence of NSC111552 ([…])” value (SARS-CoV-2 WA strain) was “about 2.4 fold”.
In the case of Inauhzin, the IC50 (SARS-CoV-2 NSP14 MTase [6]) is given as 12.9 µM and the EC50 (SARS-CoV-2 [3]) is given as 13 µM.
